What all share (type): ADME, organism-based
The subject of data set [1] is Homo sapiens. As to the kind of experiment: Absorption rate constant in pregnant human patient with uncomplicated multidrug-resistant Plasmodium falciparum malaria at 120 mg, po administered as 4 tablets BID for 3 days coadministered with 20 mg artemether by two-compartment population pharmacokinetic model. The note with it: in vivo, 72 h.
Data set [2] has as its system Homo sapiens. Kind of data set: Clearance in pregnant human patient with uncomplicated multidrug-resistant Plasmodium falciparum malaria at 120 mg, po administered as 4 tablets BID for 3 days coadministered with 20 mg artemether by two-compartment population pharmacokinetic model. The note with it: in vivo, 72 h.
A short description of data set [3]: Drug concentration in pregnant human patient with reappeared uncomplicated multidrug-resistant Plasmodium falciparum malaria infection at 120 mg, po administered as 4 tablets BID for 3 days coadministered with 20 mg artemether. Particulars: female, in vivo, read-out: Drug uptake.
The subject of data set [4] is Homo sapiens. Kind of data set: Volume of distribution at steady state in pregnant human patient with uncomplicated multidrug-resistant Plasmodium falciparum malaria at 120 mg, po administered as 4 tablets BID for 3 days coadministered with 20 mg artemether by two-compartment population pharmacokinetic model. The note with it: in vivo, 72 h.
The nature of data set [5]: Drug concentration in pregnant human with uncomplicated multidrug-resistant Plasmodium falciparum malaria infection at 120 mg, po administered as 4 tablets BID for 3 days coadministered with 20 mg artemether. Particulars: female, in vivo, read-out: Drug uptake.
Data set [6] in a line: Drug concentration in pregnant human patient with uncomplicated multidrug-resistant Plasmodium falciparum malaria at 120 mg, po administered as 4 tablets BID for 3 days coadministered with 20 mg artemether measured after 7 days by two-compartment population pharmacokinetic model. Particulars: female, in vivo, read-out: Drug uptake.
Data set [7] in a line: Cmax in venous plasma of pregnant human patient with uncomplicated multidrug-resistant Plasmodium falciparum malaria at 120 mg, po administered as 4 tablets BID for 5 days coadministered with 20 mg artemether measured on 7 days by two-compartment population pharmacokinetic model. The arrangement: dose 120 mg, route oral. Particulars: female.
Data set [8] is described as follows: Cmax in pregnant human patient with uncomplicated multidrug-resistant Plasmodium falciparum malaria at 120 mg, po administered as 4 tablets BID for 5 days coadministered with 20 mg artemether by two-compartment population pharmacokinetic model. The arrangement: dose 120 mg, route oral. Particulars: female, in vivo.
A short description of data set [9]: Cmax in capillary plasma of pregnant human patient with uncomplicated multidrug-resistant Plasmodium falciparum malaria at 120 mg, po administered as 4 tablets BID for 5 days coadministered with 20 mg artemether measured on 7 days by two-compartment population pharmacokinetic model. The arrangement: dose 120 mg, route oral. Particulars: female.
Data set [10] is described as follows: Terminal elimination half-life in pregnant human patient with uncomplicated multidrug-resistant Plasmodium falciparum malaria at 120 mg, po administered as 4 tablets BID for 3 days coadministered with 20 mg artemether by two-compartment population pharmacokinetic model. Particulars: female, in vivo, read-out: beta t1/2 (converted).
The nature of data set [11]: Cmax in pregnant human patient with uncomplicated multidrug-resistant Plasmodium falciparum malaria at 120 mg, po administered as 4 tablets BID for 3 days coadministered with 20 mg artemether by two-compartment population pharmacokinetic model. The arrangement: dose 120 mg, route oral. The note with it: female, in vivo.
The nature of data set [12]: Cmax in pregnant human patient with uncomplicated multidrug-resistant Plasmodium falciparum malaria at 120 mg, po administered as 4 tablets BID for 4 days coadministered with 20 mg artemether measured after 7 days by two-compartment population pharmacokinetic model. On the set-up: dose 120 mg, route oral. The note with it: female, in vivo.
The subject of data set [13] is Homo sapiens. Kind of data set: AUC (0 to infinity) in pregnant human patient with uncomplicated multidrug-resistant Plasmodium falciparum malaria at 120 mg, po administered as 4 tablets BID for 3 days coadministered with 20 mg artemether by two-compartment population pharmacokinetic model. On the set-up: dose 120 mg, time infinity, route oral. The note with it: in vivo, 72 h.

The nature of data set [14]: Cmax in pregnant human patient with uncomplicated multidrug-resistant Plasmodium falciparum malaria at 120 mg, po administered as 4 tablets BID for 5 days coadministered with 20 mg artemether measured after 7 days by two-compartment population pharmacokinetic model. On the set-up: dose 120 mg, route oral. The note with it: female, in vivo.
The subject of data set [15] is Homo sapiens. As to the kind of experiment: Intercompartmental clearance in pregnant human patient with uncomplicated multidrug-resistant Plasmodium falciparum malaria at 120 mg, po administered as 4 tablets BID for 3 days coadministered with 20 mg artemether by two-compartment population pharmacokinetic model. Particulars: in vivo, 72 h.
Data set [16] can be described thus: Drug concentration in pregnant human patient with uncomplicated multidrug-resistant Plasmodium falciparum malaria at 120 mg, po administered as 4 tablets BID for 3 days coadministered with 20 mg artemether. Particulars: female, in vivo, read-out: Drug uptake.
The subject of data set [17] is Homo sapiens. Kind of data set: Tlag in pregnant human patient with uncomplicated multidrug-resistant Plasmodium falciparum malaria at 120 mg, po administered as 4 tablets BID for 3 days coadministered with 20 mg artemether measured after 7 days by two-compartment population pharmacokinetic model. Particulars: in vivo.
Data set [18] relates to Homo sapiens. As to the kind of experiment: Apparent volume of distribution in pregnant human patient with uncomplicated multidrug-resistant Plasmodium falciparum malaria at 120 mg, po administered as 4 tablets BID for 3 days coadministered with 20 mg artemether by two-compartment population pharmacokinetic model. Particulars: in vivo, 72 h.
Data set [19] is described as follows: Cmax in pregnant human patient with uncomplicated multidrug-resistant Plasmodium falciparum malaria at 120 mg, po administered as 4 tablets BID for 4 days coadministered with 20 mg artemether by two-compartment population pharmacokinetic model. Particulars: female, in vivo. The arrangement: dose 120 mg, route oral.
In data set [20] the test system is Homo sapiens. As to the kind of experiment: Apparent peripheral volume of distribution in pregnant human patient with uncomplicated multidrug-resistant Plasmodium falciparum malaria at 120 mg, po administered as 4 tablets BID for 3 days coadministered with 20 mg artemether by two-compartment population pharmacokinetic model. Particulars: in vivo, 72 h.

Broadly, the Cmax is the maximum level reached in the sampled fluid or tissue. The AUC is the area under the concentration-time curve, a measure of exposure.

Regarding `CCCCN(CCCC)CC(O)c1cc(Cl)cc2c1-c1ccc(Cl)cc1/C2=C/c1ccc(Cl)cc1` (stereo not given) [LUMEFANTRINE], the Ka in [1] worked out at 0.0588 h⁻¹. In addition, the CL came to 6.11 L/h in data set [2] and 1.82 L/h in data set [15]. In addition, the concentration at 72 h turned out to be 126 ng/mL in [3], 136 ng/mL in [5] and 135 ng/mL in data set [16]. For the same molecule, the figures for the Vz in [4] and in data set [18] were 181 L and 20.2 L, respectively. In addition, the concentration at 168 h in data set [6] worked out at 391 ng/mL. The maximum concentration (Cmax) was found to be 49 ng/mL in data set [7]; 2430 ng/mL in data set [8]; 433 ng/mL in [9]; 2080 ng/mL in data set [11]; 314 ng/mL in data set [12]; 498 ng/mL in data set [14]. For the same molecule, the Cmax in data set [19] came to 2480 ng/mL. Further, the half-life in [10] is 79.2 h. The area under the curve (AUC) in data set [13] was determined as 472 µg·h/mL. In [17], the Time amounted to 1.67 h. Besides, the Vp/F in [20] was found to be 160 L.

Values taken from ChEMBL document CHEMBL1687741, “Population pharmacokinetics of lumefantrine in pregnant women treated with artemether-lumefantrine for uncomplicated Plasmodium falciparum malaria” (Antimicrob Agents Chemother, 2009).
